# Read-outs that look alike come from different tables or passages of the source.
# How the values were obtained:
# [1] = test system: HCov OC43; test: HCoV OC43 cytopathic effect (CPE) assay, CellTiter Glo; assay type: cell-based, human coronavirus (HCov) OC43
# [2] = biological target: 229E Mpro (Human coronavirus 229E, UniProt P0C6X1); test: 229E Mpro enzymatic assay (standard methods, SARS-CoV2 Mpro assay given as exemplary); assay type: biochemical, human coronavirus (HCov) 229E
# Method in brief: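 IC50 for 229E Mpro by standard methods; exemplary SARS-CoV-2 protocol used C-His6-tagged Mpro from E. coli, 25 nM enzyme, 25 μM substrate (Km 13.5 μM), in Tris-HCl pH 7.3, NaCl, EDTA, TCEP, 0.1% BSA. Inhibition normalised to no-compound and full-effect controls; four-parameter fit.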
# [3] = biological target: COVID-19 (nCoV-2019, SARS-CoV2) Mpro (Severe acute respiratory syndrome coronavirus 2, UniProt P0DTD1); test: COVID-19 (nCoV-2019, SARS-CoV2) Mpro enzymatic assay; assay type: biochemical; conditions: 25 μM substrate
# [4] = Betacoronavirus 1, OC43, read-out: OC43 IC50 (uM) MEDIAN, median
# [5] = 25 nM Mpro, read-out: COVID-19 Mpro IC50
# [6] = read-out: OC43 IC50 (uM) MEDIAN, median
# 229E Mpro, sequence (P0C6X1 2966-3267): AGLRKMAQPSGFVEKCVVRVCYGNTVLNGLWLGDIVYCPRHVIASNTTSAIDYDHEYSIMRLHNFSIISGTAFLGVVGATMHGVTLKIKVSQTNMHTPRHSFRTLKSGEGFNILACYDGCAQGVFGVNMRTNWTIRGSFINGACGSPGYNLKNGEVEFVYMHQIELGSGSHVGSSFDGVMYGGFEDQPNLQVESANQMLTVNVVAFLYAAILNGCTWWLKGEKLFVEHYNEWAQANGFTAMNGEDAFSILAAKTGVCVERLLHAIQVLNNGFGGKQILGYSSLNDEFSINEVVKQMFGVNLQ
Structure (SMILES),"IC50 [1, 4] [µM]",EC50 ([2]; 229E Mpro EC50) [µM],"IC50 [3, 5] [µM]","IC50 [1, 6] [µM]",EC50 ([2]; read-out: 229E Mpro EC50) [µM],"IC50 ([3]; COVID-19 Mpro IC50, 25 nM Mpro) [µM]"
"N#CN1CCOC[C@@H]1C(=O)N(c1ccc(C2CC2)cc1F)C(C(=O)NC1CCC(F)(F)CC1)c1cnccc1C(F)(F)F (single isomer, unassigned) [Compound 1313 Isomer 1]",< 2,< 2,< 2,,,
"N#CN1CCOC[C@@H]1C(=O)N(c1ccc(C2CC2)cc1F)C(C(=O)NC1CCC(F)(F)CC1)c1cnccc1C(F)(F)F (single isomer, unassigned) [Compound 1313 Isomer 2]",,,2 to 10,2 to 10,< 2,
"CC(C)(C#N)C(=O)N(c1ccc(S(F)(F)(F)(F)F)cc1)C(C(=O)NC1CCC(F)(F)CC1)c1cncc(F)c1 (single isomer, unassigned) [Compound 1316 Isomer 1, 2-cyano-N-[2-[(4,4-difluorocyclohexyl)amino]-1-(5-fluoro-3-pyridyl)-2-oxo-ethyl]-2-methyl-N-[4-(pentafluoro-λ6-sulfanyl)phenyl]propanamide]",> 30,10 to 30,> 30,,,
"CC(C)(C#N)C(=O)N(c1ccc(S(F)(F)(F)(F)F)cc1)C(C(=O)NC1CCC(F)(F)CC1)c1cncc(F)c1 (single isomer, unassigned) [Compound 1316 Isomer 2, 2-Cyano-N-[2-[(4,4-difluorocyclohexyl)amino]-1-(5-fluoro-3-pyridyl)-2-oxo-ethyl]-2-methyl-N-[4-(pentafluoro-λ6-sulfanyl)phenyl]propanamide]",,> 30,> 30,> 30,,
"N#CN1C[C@H]2C[C@H]2[C@@H]1C(=O)N(c1ccc(S(F)(F)(F)(F)F)cc1)C(C(=O)NC1CCC(F)(F)CC1)c1cnccc1C(F)(F)F (single isomer, unassigned) [Compound 1318 Isomer 1]",< 2,< 2,< 2,,,
"N#CN1C[C@H]2C[C@H]2[C@@H]1C(=O)N(c1ccc(S(F)(F)(F)(F)F)cc1)C(C(=O)NC1CCC(F)(F)CC1)c1cnccc1C(F)(F)F (single isomer, unassigned) [Compound 1318 Isomer 2]",,,< 2,< 2,< 2,
CC(C)(C)c1ccc(N(C(=O)[C@H]2CCCN2C#N)C(C(=O)NCc2ccccn2)c2cccnc2)cc1 (stereo partly drawn) [Compound 443],10 to 30,< 2,2 to 10,,,
CN(C)CCCNC(=O)C(c1cccnc1)N(C(=O)[C@H]1CCCN1C#N)c1ccc(C(C)(C)C)cc1 (stereo partly drawn) [Compound 455],10 to 30,< 2,2 to 10,,,
CC(C)(C)c1ccc(NC2(C#N)CCCc3ccncc32)cc1 (stereo not drawn) [Compound 690a],> 30,> 30,> 30,,,
N#CC1(Nc2ccc(S(F)(F)(F)(F)F)cc2)CCCc2ccncc21 (stereo not drawn) [Compound 690b],> 30,> 30,> 30,,,
C[C@]1(O)CN[C@@H](C(=O)N(c2ccc(S(F)(F)(F)(F)F)cc2)C(C(=O)NC2CCC(F)(F)CC2)c2cnnc3ccccc23)C1 (stereo partly drawn) [Compound 711a],< 2,< 2,< 2,,,
"CC(C)(C)c1ccc(N(C(=O)[C@H]2C[C@@H](O)CN2C#N)C(C(=O)NC2CCCCC2)c2cccnc2)c(Cl)c1 (stereo partly drawn) [Compound 775, (2R,4R)—N-(4-(tert-butyl)-2-chlorophenyl)-1-cyano-N-(2-(cyclohexylamino)-2-oxo-1-(pyridin-3-yl)ethyl)-4-hydroxypyrrolidine-2-carboxamide]",> 30,2 to 10,10 to 30,,,
"N#CN1CC(=O)NC[C@@H]1C(=O)N(c1ccc(S(F)(F)(F)(F)F)cc1)C(C(=O)NC1CCOCC1)c1cccnc1 (stereo partly drawn) [Compound 811, 1-cyano-5-oxo-N-[2-oxo-1-(3-pyridyl)-2-(tetrahydropyran-4-ylamino)ethyl]-N-[4-(pentafluoro-λ^6-sulfanyl)phenyl]piperazine-2-carboxamide]",< 2,< 2,< 2,,,
CN1C[C@H](C(=O)N(c2ccc(S(F)(F)(F)(F)F)cc2)C(C(=O)NC2CCOCC2)c2cccnc2)N(C#N)CC1=O (stereo partly drawn) [Compound 813],< 2,< 2,< 2,,,
CC(C)(C)c1ccc(N(C(=O)C2NCC[C@H]2F)C(C(=O)NC2CCCCC2)c2cccnc2)cc1 (stereo partly drawn) [Compound 853],2 to 10,2 to 10,2 to 10,,,
"CC(C)(C)c1ccc(N(C(=O)[C@H]2CCCN2C#N)C(C(=O)N2CC(=O)C2)c2cccnc2)cc1 (stereo partly drawn) [Compound 946b, (2R)—N-(4-(tert-butyl)phenyl)-1-cyano-N-(2-oxo-2-(3-oxoazetidin-1-yl)-1-(pyridin-3-yl)ethyl)pyrrolidine-2-carboxamide]",10 to 30,2 to 10,10 to 30,,,
"CC(C)(C)c1ccc(N(C(=O)[C@H]2CCCN2C#N)C(C(=O)N2CC(O)C2)c2cccnc2)cc1 (stereo partly drawn) [Compound 950, (2R)—N-(4-(tert-butyl)phenyl)-1-cyano-N-(2-(3-hydroxyazetidin-1-yl)-2-oxo-1-(pyridin-3-yl)ethyl)pyrrolidine-2-carboxamide]",10 to 30,2 to 10,2 to 10,,,
CC(C)(C)OC(=O)N1CCN(C(=O)C(c2cccnc2)N(C(=O)[C@H]2CCCN2C#N)c2ccc(C(C)(C)C)cc2)CC1 (stereo partly drawn) [Compound 954b],2 to 10,2 to 10,2 to 10,,,
"CN1CN(C(=O)C(c2cccnc2)N(C(=O)[C@H]2CCCN2C#N)c2ccc(C(C)(C)C)cc2)CC1=O (stereo partly drawn) [Compound 962, (2R)—N-(4-(tert-butyl)phenyl)-1-cyano-N-(2-(3-methyl-4-oxoimidazolidin-1-yl)-2-oxo-1-(pyridin-3-yl)ethyl)pyrrolidine-2-carboxamide]",10 to 30,2 to 10,10 to 30,,,
CC(C)(C)c1ccc(N(C(=O)[C@H]2CCCN2C#N)C(C(=O)N2CCC(N)CC2)c2cccnc2)cc1 (stereo partly drawn) [Compound 966],> 30,> 30,> 30,,,
CC(C)(C)OC(=O)NC1CCN(C(=O)C(c2cccnc2)N(C(=O)[C@H]2CCCN2C#N)c2ccc(C(C)(C)C)cc2)CC1 (stereo partly drawn) [Compound 966b],10 to 30,2 to 10,10 to 30,,,
"CN(C)C1CN(C(=O)C(c2cccnc2)N(C(=O)[C@H]2CCCN2C#N)c2ccc(C(C)(C)C)cc2)C1 (stereo partly drawn) [Compound 975, (2R)—N-(4-(tert-butyl)phenyl)-1-cyano-N-(2-(3-(dimethylamino)azetidin-1-yl)-2-oxo-1-(pyridin-3-yl)ethyl)pyrrolidine-2-carboxamide]",10 to 30,2 to 10,10 to 30,,,
"Cc1ccncc1C(C(=O)NC1CCC(F)(F)CC1)N(C(=O)[C@H]1C[C@@](C)(O)CN1C#N)c1ccc(S(F)(F)(F)(F)F)cc1 (stereo partly drawn) [Compound 993c, (2R,4R)-1-cyano-N-[2-[(4,4-difluorocyclohexyl)amino]-1-(4-methyl-3-pyridyl)-2-oxo-ethyl]-4-hydroxy-4-methyl-N-[4-(pentafluoro-λ6-sulfanyl)phenyl]pyrrolidine-2-carboxamide]",2 to 10,< 2,< 2,,,
"Cc1ccnc(C)c1C(C(=O)NC1CCC(F)(F)CC1)N(C(=O)[C@H]1C[C@@](C)(O)CN1C#N)c1ccc(S(F)(F)(F)(F)F)cc1 (stereo partly drawn) [Compound 997c, (2R,4R)-1-cyano-N-[2-[(4,4-difluorocyclohexyl)amino]-1-(2,4-dimethyl-3-pyridyl)-2-oxo-ethyl]-4-hydroxy-4-methyl-N-[4-(pentafluoro-λ^6-sulfanyl)phenyl]pyrrolidine-2-carboxamide]",2 to 10,< 2,10 to 30,,,
"CC(C(=O)NC1CCC(F)(F)CC1)(c1cccnc1)N(C(=O)[C@H]1C[C@@](C)(O)CN1C#N)c1ccc(S(F)(F)(F)(F)F)cc1 (stereo partly drawn) [Compound 1077, (2R,4R)-1-cyano-N-[2-[(4,4-difluorocyclohexyl)amino]-1-methyl-2-oxo-1-(3-pyridyl)ethyl]-4-hydroxy-4-methyl-N-[4-(pentafluoro-λ^6-sulfanyl)phenyl]pyrrolidine-2-carboxamide]",< 2,< 2,< 2,,,
"N#CN1C[C@H]2C[C@H]2[C@@H]1C(=O)N(c1ccc(S(F)(F)(F)(F)F)cc1)C(C(=O)NC1CCC(F)(F)CC1)c1cncc(F)c1 (stereo partly drawn) [Compound 1095b, (1R,2R,5S)-3-cyano-N-[2-[(4,4-difluorocyclohexyl)amino]-1-(5-fluoro-3-pyridyl)-2-oxo-ethyl]-N-[4-(pentafluoro-λ^6-sulfanyl)phenyl]-3-azabicyclo[3.1.0]hexane-2-carboxamide]",< 2,< 2,< 2,,,
"N#CN1C2CCC1(C(=O)N(c1ccc(S(F)(F)(F)(F)F)cc1)C(C(=O)NC1CCC(F)(F)CC1)c1cncc(F)c1)CC2 (stereo not drawn) [Compound 1101, 7-cyano-N-[2-[(4,4-difluorocyclohexyl)amino]-1-(5-fluoro-3-pyridyl)-2-oxo-ethyl]-N-[4-(pentafluoro-λ6-sulfanyl)phenyl]-7-azabicyclo[2.2.1]heptane-1-carboxamide]",> 30,,,,2 to 10,> 30
O=C1CCCCC1C(=O)N(c1ccc(S(F)(F)(F)(F)F)cc1)C(C(=O)NC1CCC(F)(F)CC1)c1cncc(F)c1 (stereo not drawn) [Compound 1114],> 30,2 to 10,10 to 30,,,
